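These data come from cells grown in 96-well plates and exposed to compound for 48 hours at five concentrations. Abbreviation: GI50, concentration required for 50% inhibition of growth.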 Calls of active or inactive are those of the source. Rule as the data show it: active = GI50 up to about 1.1 µM and inactive = higher.
What was measured:
Assay in all cases: inhibition of tumour cell growth, NCI panel, 48 h
786-0 = system: 786-0
A549 = system: A549
ACHN = system: ACHN
BT-549 = system: BT-549
CAKI-1 = system: CAKI-1
CCRF-CEM = system: CCRF-CEM
COLO 205 = system: COLO 205
DU-145 = system: DU-145
EKVX = system: EKVX
HCC 2998 = system: HCC 2998
HCT-116 = system: HCT-116
HCT-15 = system: HCT-15
HL-60 = system: HL-60
HOP-62 = system: HOP-62
HOP-92 = system: HOP-92
HT-29 = system: HT-29
Hs-578T = system: Hs-578T
IGROV-1 = system: IGROV-1
K562 = system: K562
KM12 = system: KM12
LOX IMVI = system: LOX IMVI
M14 = system: M14
MCF7 = system: MCF7
MDA-MB-231 = system: MDA-MB-231
MDA-MB-435 = system: MDA-MB-435
MDA-N = system: MDA-N
MOLT-4 = system: MOLT-4
Malme-3M = system: Malme-3M
NCI-H226 = system: NCI-H226
NCI-H23 = system: NCI-H23
NCI-H460 = system: NCI-H460
NCI-H522 = system: NCI-H522
NCI/ADR-RES = system: NCI/ADR-RES
OVCAR-3 = system: OVCAR-3
OVCAR-4 = system: OVCAR-4
OVCAR-5 = system: OVCAR-5
OVCAR-8 = system: OVCAR-8
PC-3 = system: PC-3
RPMI-8226 = system: RPMI-8226
SF-268 = system: SF-268
SF-295 = system: SF-295
SF-539 = system: SF-539
SK-MEL-28 = system: SK-MEL-28
SK-MEL-2 = system: SK-MEL-2
SK-MEL-5 = system: SK-MEL-5
SK-OV-3 = system: SK-OV-3
SN12C = system: SN12C
SNB-19 = system: SNB-19
SNB-75 = system: SNB-75
SR = system: SR
SW-620 = system: SW-620
T47D = system: T47D
TK-10 = system: TK-10
U-251 = system: U-251
UACC-257 = system: UACC-257
UACC-62 = system: UACC-62
UO-31 = system: UO-31
RXF 393 = system: RXF 393

COc1ccc(N2CCN(c3ccc4c(c3)NCC(=O)N4)CC2)cc1
GI50 (786-0): 32.2 µM (inactive)
GI50 (A549): 66.2 µM (inactive)
GI50 (ACHN): 32.3 µM (inactive)
GI50 (BT-549): 34 µM (inactive)
GI50 (CAKI-1): 64.4 µM (inactive)
GI50 (CCRF-CEM): 29.7 µM (inactive)
GI50 (COLO 205): 43 µM (inactive)
GI50 (DU-145): > 100 µM (inactive)
GI50 (EKVX): 39.2 µM (inactive)
GI50 (HCC 2998): > 100 µM (inactive)
GI50 (HCT-116): 42.5 µM (inactive)
GI50 (HCT-15): 49.5 µM
GI50 (HL-60): 17.1 µM (inactive)
GI50 (HOP-62): > 100 µM (inactive)
GI50 (HOP-92): 23.5 µM (inactive)
GI50 (HT-29): > 100 µM (inactive)
GI50 (Hs-578T): 25.3 µM (inactive)
GI50 (IGROV-1): 45.8 µM (inactive)
GI50 (K562): 28.8 µM (inactive)
GI50 (KM12): 21.3 µM (inactive)
GI50 (LOX IMVI): 41.4 µM (inactive)
GI50 (M14): 52.5 µM (inactive)
GI50 (MCF7): > 100 µM (inactive)
GI50 (MDA-MB-231): 34.4 µM (inactive)
GI50 (MDA-MB-435): > 100 µM (inactive)
GI50 (MDA-N): > 100 µM (inactive)
GI50 (MOLT-4): 60.7 µM (inactive)
GI50 (Malme-3M): 23.1 µM (inactive)
GI50 (NCI-H226): > 100 µM (inactive)
GI50 (NCI-H23): 60.7 µM (inactive)
GI50 (NCI-H460): > 100 µM (inactive)
GI50 (NCI-H522): 14.6 µM (inactive)
GI50 (NCI/ADR-RES): 21.9 µM (inactive)
GI50 (OVCAR-3): 28.8 µM (inactive)
GI50 (OVCAR-4): 32.1 µM (inactive)
GI50 (OVCAR-5): 54.7 µM (inactive)
GI50 (OVCAR-8): 26.7 µM (inactive)
GI50 (PC-3): 36.2 µM (inactive)
GI50 (RPMI-8226): 21.4 µM (inactive)
GI50 (SF-268): 74.1 µM (inactive)
GI50 (SF-295): 69.2 µM (inactive)
GI50 (SF-539): 23.6 µM (inactive)
GI50 (SK-MEL-28): > 100 µM (inactive)
GI50 (SK-MEL-2): 37.3 µM (inactive)
GI50 (SK-MEL-5): 42.8 µM (inactive)
GI50 (SK-OV-3): 91.6 µM (inactive)
GI50 (SN12C): 70.6 µM (inactive)
GI50 (SNB-19): 59.4 µM (inactive)
GI50 (SNB-75): 26.9 µM (inactive)
GI50 (SR): 9.75 µM (inactive)
GI50 (SW-620): 61.5 µM (inactive)
GI50 (T47D): 15.4 µM (inactive)
GI50 (TK-10): 41.8 µM (inactive)
GI50 (U-251): 25.6 µM (inactive)
GI50 (UACC-257): 95.5 µM (inactive)
GI50 (UACC-62): 25.3 µM (inactive)
GI50 (UO-31): 26.9 µM (inactive)

COc1cc(C=C2N=C(c3ccccc3)N(n3c(-c4ccccc4)nc4ccccc4c3=O)C2=O)cc(OC)c1OC
GI50 (786-0): 21.8 µM (inactive)
GI50 (A549): 36.9 µM (inactive)
GI50 (ACHN): 28.7 µM (inactive)
GI50 (BT-549): 16.4 µM (inactive)
GI50 (CAKI-1): 48.3 µM (inactive)
GI50 (CCRF-CEM): 48.5 µM (inactive)
GI50 (COLO 205): 22 µM (inactive)
GI50 (DU-145): 27.6 µM (inactive)
GI50 (EKVX): 23.8 µM (inactive)
GI50 (HCC 2998): 30.7 µM (inactive)
GI50 (HCT-116): 22.2 µM (inactive)
GI50 (HCT-15): 31.5 µM
GI50 (HL-60): 49.1 µM (inactive)
GI50 (HOP-62): 13.6 µM (inactive)
GI50 (HOP-92): 14.5 µM (inactive)
GI50 (HT-29): 31.8 µM (inactive)
GI50 (Hs-578T): 15.8 µM (inactive)
GI50 (IGROV-1): 32.5 µM (inactive)
GI50 (K562): 45.8 µM (inactive)
GI50 (KM12): 19.7 µM (inactive)
GI50 (LOX IMVI): 21.6 µM (inactive)
GI50 (M14): 27.2 µM (inactive)
GI50 (MCF7): 22 µM (inactive)
GI50 (MDA-MB-231): 21.9 µM (inactive)
GI50 (MDA-MB-435): 24.3 µM (inactive)
GI50 (MDA-N): 29 µM (inactive)
GI50 (MOLT-4): 30 µM (inactive)
GI50 (Malme-3M): 19.3 µM (inactive)
GI50 (NCI-H226): 25.6 µM (inactive)
GI50 (NCI-H23): 19.1 µM (inactive)
GI50 (NCI-H460): 20.3 µM (inactive)
GI50 (NCI-H522): 20.1 µM (inactive)
GI50 (NCI/ADR-RES): 38.9 µM (inactive)
GI50 (OVCAR-3): 21.3 µM (inactive)
GI50 (OVCAR-4): 27.4 µM (inactive)
GI50 (OVCAR-5): 38.9 µM (inactive)
GI50 (OVCAR-8): 21.1 µM (inactive)
GI50 (PC-3): 31.1 µM (inactive)
GI50 (RPMI-8226): > 10 µM (inactive)
GI50 (RXF 393): 12.1 µM (inactive)
GI50 (SF-268): 28.4 µM (inactive)
GI50 (SF-295): 19.5 µM (inactive)
GI50 (SF-539): 18.7 µM (inactive)
GI50 (SK-MEL-28): 17.7 µM (inactive)
GI50 (SK-MEL-2): 21.1 µM (inactive)
GI50 (SK-MEL-5): 23.4 µM (inactive)
GI50 (SK-OV-3): 35.4 µM (inactive)
GI50 (SN12C): 16.9 µM (inactive)
GI50 (SNB-19): 24.7 µM (inactive)
GI50 (SNB-75): 23.1 µM (inactive)
GI50 (SR): 40.7 µM (inactive)
GI50 (SW-620): 31.9 µM (inactive)
GI50 (T47D): 20.3 µM (inactive)
GI50 (TK-10): 45.9 µM (inactive)
GI50 (U-251): > 10 µM (inactive)
GI50 (UACC-257): 20.1 µM (inactive)
GI50 (UACC-62): 22.3 µM (inactive)
GI50 (UO-31): 31 µM (inactive)

NC(C(F)(F)F)(C(F)(F)F)P(=O)(Cc1ccccc1)Cc1ccccc1
GI50 (786-0): 66.1 µM (inactive)
GI50 (A549): > 100 µM (inactive)
GI50 (ACHN): > 100 µM (inactive)
GI50 (BT-549): > 100 µM (inactive)
GI50 (CAKI-1): > 100 µM (inactive)
GI50 (CCRF-CEM): > 100 µM (inactive)
GI50 (COLO 205): > 100 µM (inactive)
GI50 (DU-145): > 100 µM (inactive)
GI50 (EKVX): > 100 µM (inactive)
GI50 (HCC 2998): > 100 µM (inactive)
GI50 (HCT-116): > 100 µM (inactive)
GI50 (HCT-15): > 100 µM
GI50 (HL-60): > 100 µM (inactive)
GI50 (HOP-62): 83.2 µM (inactive)
GI50 (HT-29): > 100 µM (inactive)
GI50 (Hs-578T): 58.1 µM (inactive)
GI50 (IGROV-1): > 100 µM (inactive)
GI50 (K562): > 100 µM (inactive)
GI50 (KM12): > 100 µM (inactive)
GI50 (LOX IMVI): > 100 µM (inactive)
GI50 (M14): > 100 µM (inactive)
GI50 (MCF7): > 100 µM (inactive)
GI50 (MDA-MB-231): > 100 µM (inactive)
GI50 (MDA-MB-435): > 100 µM (inactive)
GI50 (MDA-N): > 100 µM (inactive)
GI50 (MOLT-4): > 100 µM (inactive)
GI50 (Malme-3M): > 100 µM (inactive)
GI50 (NCI-H23): > 100 µM (inactive)
GI50 (NCI-H460): > 100 µM (inactive)
GI50 (NCI/ADR-RES): > 100 µM (inactive)
GI50 (OVCAR-3): > 100 µM (inactive)
GI50 (OVCAR-4): > 100 µM (inactive)
GI50 (OVCAR-5): > 100 µM (inactive)
GI50 (OVCAR-8): > 100 µM (inactive)
GI50 (PC-3): > 100 µM (inactive)
GI50 (RPMI-8226): > 100 µM (inactive)
GI50 (RXF 393): 28.9 µM (inactive)
GI50 (SF-268): 73.8 µM (inactive)
GI50 (SF-295): > 100 µM (inactive)
GI50 (SF-539): 42.8 µM (inactive)
GI50 (SK-MEL-28): > 100 µM (inactive)
GI50 (SK-MEL-2): > 100 µM (inactive)
GI50 (SK-MEL-5): > 100 µM (inactive)
GI50 (SK-OV-3): > 100 µM (inactive)
GI50 (SN12C): > 100 µM (inactive)
GI50 (SNB-19): > 100 µM (inactive)
GI50 (SNB-75): 55.6 µM (inactive)
GI50 (SR): > 100 µM (inactive)
GI50 (SW-620): > 100 µM (inactive)
GI50 (T47D): > 100 µM (inactive)
GI50 (TK-10): > 100 µM (inactive)
GI50 (U-251): > 100 µM (inactive)
GI50 (UACC-257): > 100 µM (inactive)
GI50 (UACC-62): > 100 µM (inactive)
GI50 (UO-31): > 100 µM (inactive)

Reference: ChEMBL document CHEMBL1201862, “PubChem BioAssay data set” (2004)
